Counter-ions that a name gives are not always drawn.

For the assay, the target named is T1, angiotensin II receptor (Rattus norvegicus, UniProt P25095).
T1 sequence (P25095 1-359): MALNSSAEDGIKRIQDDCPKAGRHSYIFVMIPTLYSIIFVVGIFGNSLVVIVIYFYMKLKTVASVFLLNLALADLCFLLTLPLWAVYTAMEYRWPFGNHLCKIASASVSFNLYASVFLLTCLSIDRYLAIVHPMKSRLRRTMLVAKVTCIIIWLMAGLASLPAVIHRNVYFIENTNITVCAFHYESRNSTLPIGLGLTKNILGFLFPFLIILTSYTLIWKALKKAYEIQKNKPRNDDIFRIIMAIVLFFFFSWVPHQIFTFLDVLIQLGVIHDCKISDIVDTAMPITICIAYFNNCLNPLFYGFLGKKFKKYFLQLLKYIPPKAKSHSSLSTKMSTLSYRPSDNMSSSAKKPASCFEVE
Kind of assay: Inhibition of binding of angiotensin II to rat smooth muscle cells (125I-AII). The following applies: ^125 I-Tyr^4-angiotensin II, smooth muscle cells from rat aorta, room temperature, 1 hour; read-out: inhibitory action (IC50) on the binding of angiotensin II to the receptor.
A word on the IC50: it is the midpoint of a concentration-inhibition curve. Take `CCc1nc2c(C)cc(C)nc2n1Cc1ccc2nn(-c3ccccc3C(=O)O)c(Br)c2c1`: the IC50 amounted to 2 nM. With `CCCCc1nc(Cl)c(CO)n1Cc1ccc2nn(-c3ccccc3C(=O)O)c(Br)c2c1` [Example 4, 1-[3-bromo-2-(2-carboxyphenyl)-2H-indazol-5-yl]methyl-2-butyl-4-chloro-5-(hydroxymethyl)-1H-imidazole] the figure was 4.3 nM; with `CCCCc1nc(Cl)c(CO)n1Cc1ccc2nn(-c3ccccc3C(=O)O)cc2c1` [Example 5, 2-butyl-4-chloro-1-[2-(2-carboxyphenyl)-2H-indazol-5-yl]methyl-5-(hydroxymethyl)-1H-imidazole], 40 nM. For `CCCCc1nc(Cl)c(C=O)n1Cc1ccc2nn(-c3ccccc3C(=O)O)c(Br)c2c1` [Example 6, 2-butyl-4-chloro-1-[3-bromo-2-(2-carboxyphenyl)-2H-indazol-5-yl]methyl-1H-imidazole-5-carbaldehyde] the value was 19 nM; for `CCCCc1nc(Cl)c(C=O)n1Cc1ccc2nn(-c3ccccc3C(=O)O)cc2c1` [Example 7, 2-butyl-4-chloro-1-[2-(2-carboxyphenyl)-2H-indazol-5-yl]methyl-1H-imidazole-5-carbaldehyde], 130 nM; for `CCCCc1nc(Cl)c(C(=O)O)n1Cc1ccc2nn(-c3ccccc3C(=O)O)c(Br)c2c1` [Example 9, disodium 1-[3-bromo-2-(2-carboxyphenyl)-2H-indazol-5-yl]methyl-2-butyl-4-chloro-1H-imidazole-5-carboxylate], 2.5 nM. With `CCCCc1nc(C(=O)O)c(Cl)n1Cc1ccc2nn(-c3ccccc3C(=O)O)c(Br)c2c1` [Example 10, disodium 2-butyl-5-chloro-1-[3-bromo-2-(2-carboxyphenyl)-2H-indazol-5-yl]methyl-1H-imidazole-4-carboxylate] the figure was 720 nM; with `CCCCc1nc(Cl)c(C=O)n1Cc1ccc2nn(-c3ccccc3-c3nnn[nH]3)c(Br)c2c1` [Example 12, 1-{[3-bromo-2-[2-(1H-tetrazol-5-yl)phenyl]-2H-indazol-5-yl]methyl}-2-butyl-4-chloro-1H-imidazole-5-carbaldehyde], 60 nM; with `CCCCc1nc(Cl)c(CO)n1Cc1ccc2nn(-c3ccccc3-c3nnn[nH]3)c(Br)c2c1` [Example 14, 1-{[3-bromo-2-[2-(1H-tetrazol-5-yl)phenyl]-2H-indazol-5-yl]methyl}-2-butyl-4-chloro-5-(hydroxymethyl)-1H-imidazole], 2.5 nM.

`CCCc1nc2c(C)ccnc2n1Cc1ccc2nn(-c3ccccc3C(=O)O)c(Br)c2c1` [Example 20, 3-[3-bromo-2-(2-carboxyphenyl)-2H-indazol-5-yl]-methyl-7-methyl-2-propyl-3H-imidazo[4,5-b]pyridine]: the IC50 stood at 1.4 nM. Regarding `CCc1nc2c(C)cc(C)nc2n1Cc1ccc2nn(-c3ccccc3-c3nnn[nH]3)c(Br)c2c1` [Example 21, 3-{[3-bromo-2-[2-(1H-tetrazol-5-yl)phenyl]-2H-indazol-5-yl]methyl}-2-ethyl-5,7-dimethyl-3H-imidazo[4,5-b]pyridine], the IC50 worked out at 1.1 nM. For `CCCc1nc2c(C)ccnc2n1Cc1ccc2nn(-c3ccccc3-c3nnn[nH]3)c(Br)c2c1` [Example 22, 3-{[3-bromo-2-[2-(1H-tetrazol-5-yl)phenyl]-2H-indazol-5-yl]methyl}-7-methyl-2-propyl-3H-imidazo[4,5-b]pyridine], the IC50 was determined as 1.8 nM. For `CCCCc1nc2cccnc2n1Cc1ccc2nn(-c3ccccc3-c3nnn[nH]3)c(Br)c2c1` [Example 23, 3-{[3-bromo-2-[2-(1H-tetrazol-5-yl)phenyl]-2H-indazol-5-yl]methyl}-2-butyl-3H-imidazo[4,5-b]pyridine] the value was 3.1 nM; for `CCc1nc2c(C)cc(C)nc2n1Cc1ccc2nn(-c3ccccc3-c3nnn[nH]3)c(Cl)c2c1` [Example 24, 3-{[3-chloro-2-[2-(1H-tetrazol-5-yl)phenyl]-2H-indazol-5-yl]methyl}-2-ethyl-5,7-dimethyl-3H-imidazo[4,5-b]pyridine], 0.8 nM. For the compound `CCc1nc2c(C)cc(C)nc2n1Cc1ccc2nn(-c3cccc(Cl)c3-c3nnn[nH]3)c(Br)c2c1` [Example 25, 3-{[3-bromo-2-[3-chloro-2-(1H-tetrazol-5-yl)-phenyl]-2H-indazol-5-yl]methyl}-2-ethyl-5,7-dimethyl-3H-imidazo[4,5-b]pyridine], the IC50 was 0.72 nM. With `CCCCc1nc2cccnc2n1Cc1ccc2nn(-c3ccccc3C(=O)O)c(Br)c2c1` [sodium salt] the figure was 6.7 nM.

The record behind these values is patent publication US5387684A, “Isoindazole compound” (The Green Cross Corporation, priority 1992, dated 1995).
